Measurements: article PMC3179854 (Journal of the American Chemical Society, 2011)
Like-named read-outs stand apart in the source and are kept apart here.

What was measured:
CYP3A4 [1] = target: T1, CYP3A4 (Homo sapiens, UniProt P08684); assay: MesaPlate metabolic stability
CYP1A2 [2] = target: T2, CYP1A2 (Homo sapiens, UniProt P05177); conditions: CYP1A2, substrate conc. 500 μM
T2 sequence (P05177 1-516): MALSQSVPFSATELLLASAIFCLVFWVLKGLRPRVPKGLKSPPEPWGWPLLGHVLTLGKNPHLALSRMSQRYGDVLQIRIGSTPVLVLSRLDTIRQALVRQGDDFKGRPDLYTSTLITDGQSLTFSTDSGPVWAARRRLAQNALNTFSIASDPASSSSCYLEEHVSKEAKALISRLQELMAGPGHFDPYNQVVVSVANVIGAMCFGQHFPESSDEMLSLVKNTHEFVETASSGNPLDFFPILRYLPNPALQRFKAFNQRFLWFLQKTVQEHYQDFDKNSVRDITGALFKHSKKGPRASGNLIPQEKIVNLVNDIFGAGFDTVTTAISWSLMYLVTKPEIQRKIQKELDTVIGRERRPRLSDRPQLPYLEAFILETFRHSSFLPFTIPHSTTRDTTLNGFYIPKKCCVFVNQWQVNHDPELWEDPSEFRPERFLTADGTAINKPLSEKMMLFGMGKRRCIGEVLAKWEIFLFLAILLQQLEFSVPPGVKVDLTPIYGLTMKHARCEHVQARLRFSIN

CYP1A2 [3] = target: T2, CYP1A2; conditions: CYP1A2, substrate conc. 500 μM; remark: listed apart in the source
CYP2C9 [4] = target: T3, CYP2C9 (Homo sapiens, UniProt P11712)
T3 sequence (P11712 whole entry): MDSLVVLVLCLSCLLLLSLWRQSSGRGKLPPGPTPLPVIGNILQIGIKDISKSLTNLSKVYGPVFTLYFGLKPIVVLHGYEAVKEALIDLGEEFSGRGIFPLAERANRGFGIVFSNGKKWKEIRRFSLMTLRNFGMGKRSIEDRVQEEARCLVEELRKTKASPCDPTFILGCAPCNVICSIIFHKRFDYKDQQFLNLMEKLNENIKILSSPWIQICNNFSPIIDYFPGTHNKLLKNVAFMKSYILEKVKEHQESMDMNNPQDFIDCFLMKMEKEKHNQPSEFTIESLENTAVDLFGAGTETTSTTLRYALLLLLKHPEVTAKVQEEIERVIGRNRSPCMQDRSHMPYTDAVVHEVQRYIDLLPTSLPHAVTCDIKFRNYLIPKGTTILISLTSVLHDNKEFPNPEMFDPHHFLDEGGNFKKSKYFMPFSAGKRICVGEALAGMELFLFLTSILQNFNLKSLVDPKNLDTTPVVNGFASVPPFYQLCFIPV

CYP2C9 [5] = target: T3, CYP2C9; assay: in vitro
CYP2C9 [6] = target: T3, CYP2C9; conditions: cited from earlier work
[7] = system: pooled human liver microsomes; assay type: in vitro ADME; conditions: substrates dextromethorphan (CYP2D6), diclofenac (CYP2C9), phenacetin (CYP1A2), testosterone (CYP3A4)
CYP3A4 [8] = target: T1, CYP3A4; conditions: read-out: IC50, literature value; cited from earlier work
CYP3A4 [9] = target: T1, CYP3A4; assay: Inhibition of CYP3A4-catalyzed testosterone metabolism in Baculosomes
CYP2D6 [10] = target: T4, CYP2D6 (Homo sapiens, UniProt P10635); assay: MesaPlate metabolic stability; assay type: in vitro ADME
T4 sequence (P10635 whole entry): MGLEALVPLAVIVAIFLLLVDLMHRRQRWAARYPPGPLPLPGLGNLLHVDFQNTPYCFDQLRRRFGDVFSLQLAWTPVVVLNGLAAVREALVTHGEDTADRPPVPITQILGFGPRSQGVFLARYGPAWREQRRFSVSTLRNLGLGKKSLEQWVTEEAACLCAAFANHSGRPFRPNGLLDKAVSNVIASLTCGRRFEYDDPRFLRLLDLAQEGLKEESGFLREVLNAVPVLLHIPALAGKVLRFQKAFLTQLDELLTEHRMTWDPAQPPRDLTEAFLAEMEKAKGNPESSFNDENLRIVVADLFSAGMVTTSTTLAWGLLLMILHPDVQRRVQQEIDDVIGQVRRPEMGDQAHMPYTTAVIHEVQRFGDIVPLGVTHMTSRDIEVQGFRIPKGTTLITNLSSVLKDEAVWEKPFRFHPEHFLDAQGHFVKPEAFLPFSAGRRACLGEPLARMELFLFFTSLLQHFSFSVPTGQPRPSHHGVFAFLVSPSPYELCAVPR

CYP2D6 [11] = target: T4, CYP2D6; assay: Metabolic stability measured with chromatography; assay type: in vitro ADME

T1 sequence (P08684 whole entry): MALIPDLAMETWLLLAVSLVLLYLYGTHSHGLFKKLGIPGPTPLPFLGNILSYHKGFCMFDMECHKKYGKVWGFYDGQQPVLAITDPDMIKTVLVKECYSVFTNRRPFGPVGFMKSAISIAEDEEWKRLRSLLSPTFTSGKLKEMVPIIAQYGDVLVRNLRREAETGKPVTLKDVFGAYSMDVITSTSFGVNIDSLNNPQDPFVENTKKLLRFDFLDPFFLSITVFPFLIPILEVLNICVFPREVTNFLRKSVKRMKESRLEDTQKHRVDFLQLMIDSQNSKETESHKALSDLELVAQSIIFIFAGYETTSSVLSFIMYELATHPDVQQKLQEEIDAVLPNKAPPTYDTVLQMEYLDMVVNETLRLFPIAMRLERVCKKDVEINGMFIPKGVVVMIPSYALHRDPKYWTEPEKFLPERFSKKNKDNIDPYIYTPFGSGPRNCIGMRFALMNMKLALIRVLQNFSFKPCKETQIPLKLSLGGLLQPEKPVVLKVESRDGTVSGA

Compound: C[C@]12CC[C@H]3[C@@H](CCC4=CC(=O)CC[C@@]43C)[C@@H]1CC[C@@H]2O [Testosterone]
- kcat (MesaPlate) (CYP3A4 [1]; CYP3A4, Michaelis-Menten fit): 1.97 ± 0.13 s⁻¹
- Km (CYP3A4 [1]; human, Baculosomes with CYP3A4): 31 ± 7 µM

Compound: Cc1c[nH]c2ccccc12 [3-methylindole]
- −rRH (metabolic stability), MesaPlate (CYP1A2 [2]): 15.8 ± 1.8 nmol/min/nmol P450
- −rRH (metabolic stability), Chromatography (CYP1A2 [3]): 10.7 ± 0.8 nmol/min/nmol P450

Compound: O=C(O)Cc1ccccc1Nc1c(Cl)cccc1Cl [Diclofenac]
- kcat (MesaPlate) (CYP2C9 [4]): 0.183 ± 0.017 s⁻¹
- Km (CYP2C9 [5]): 20 ± 7 µM
- Km (CYP2C9 [6]): 5 µM
- kcat (Literature) (CYP2C9 [6]): 0.483 s⁻¹

Compound: c1ccc(-n2ccnc2)cc1 [1-phenylimidazole]
- measured rate of P450 oxidation in the presence of inhibitor [7]: much lower
- IC50 (CYP3A4 [8]): 2700 nM
- IC50 (CYP3A4 [9]): 2390 ± 10 nM

Compound: CN(C)CCC=C1c2ccccc2CCc2ccccc21 [Amitriptyline]
- −rRH (metabolic stability), MesaPlate (CYP2D6 [10]; CYP2D6, substrate conc. 60 μM): 6.7 ± 0.8 nmol/min/nmol P450
- −rRH (metabolic stability), Chromatography (CYP2D6 [11]; CYP2D6, substrate conc. 60 μM): 3.8 ± 0.4 nmol/min/nmol P450

Compound: COCCc1ccc(OCC(O)CNC(C)C)cc1 (stereo not drawn) [Metoprolol]
- −rRH (metabolic stability), MesaPlate (CYP2D6 [10]; CYP2D6, substrate conc. 100 μM): 12.2 ± 2.2 nmol/min/nmol P450
- −rRH (metabolic stability), Chromatography (CYP2D6 [11]; CYP2D6, substrate conc. 100 μM): 9.8 ± 2.3 nmol/min/nmol P450
